Data published in patent US9611277B2 (Janssen Pharmaceutica NV, priority 2013, dated 2017).

Key:
human orexin 2 receptor = human orexin 2 receptor (Homo sapiens (Human), UniProt O43614); test: Human orexin 2 receptor radioligand binding; conditions: human orexin 2 receptor; averages of 2-20 runs; read-out: hOX2 Ki
In short: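 HEK293 cells stably expressing human OX2 receptor, homogenized, incubated with [3H]-EMPA and compounds (DMSO ≤0.1%); nonspecific binding with 10 μM almorexant. Filter-bound radioactivity counted by scintillation; IC50 from one-site competition fit of triplicates, Ki from IC50 and predetermined radioligand Kd, averaged over 2-20 runs.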

rat orexin 1 receptor = rat orexin 1 receptor (Rattus norvegicus, UniProt P56718); test: Rat orexin 1 receptor radioligand binding; conditions: rat orexin 1 receptor; averages of 2-20 runs; read-out: rOX1 Ki
In short: (§1)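 Competition binding with the tritiated thiazolyl-pyrrolidinyl-methanone radioligand in PBS on homogenized rat or human OX1R-expressing cell suspensions, ≤0.1% DMSO; nonspecific binding defined with 10 μM almorexant. Bound radioactivity read by scintillation after filtration; IC50 from one-site competition fit, converted to Ki using pre-determined radioligand Kd.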

human orexin 1 receptor = human orexin 1 receptor (Homo sapiens, UniProt O43613); test: Human orexin 1 receptor radioligand binding; conditions: human orexin 1 receptor; averages of 2-20 runs; read-out: hOX1 Ki
In short: as §1

Sequence of human orexin 2 receptor (O43614 whole entry): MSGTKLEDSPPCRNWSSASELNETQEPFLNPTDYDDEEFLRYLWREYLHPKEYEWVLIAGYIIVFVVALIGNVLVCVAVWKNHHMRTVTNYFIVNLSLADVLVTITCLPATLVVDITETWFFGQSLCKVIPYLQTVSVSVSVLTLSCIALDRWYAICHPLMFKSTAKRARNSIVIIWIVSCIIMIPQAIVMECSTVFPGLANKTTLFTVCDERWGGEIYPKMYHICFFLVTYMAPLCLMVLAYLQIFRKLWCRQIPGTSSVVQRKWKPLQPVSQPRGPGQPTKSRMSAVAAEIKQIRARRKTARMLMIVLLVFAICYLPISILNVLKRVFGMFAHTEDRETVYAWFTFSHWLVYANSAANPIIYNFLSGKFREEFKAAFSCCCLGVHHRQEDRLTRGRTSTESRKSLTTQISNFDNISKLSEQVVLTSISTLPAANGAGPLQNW

| SMILES | Ki (human orexin 2 receptor) | Ki (rat orexin 1 receptor) | Ki (human orexin 1 receptor) |
| --- | --- | --- | --- |
| Cc1ccc(C(=O)N2C[C@H]3C[C@@H](Nc4ccc(C(F)(F)F)cn4)[C@@H]2C3)c(-n2nccn2)n1 [Example 143, (6-methyl-2-(2H-1,2,3-triazol-2-yl)pyridin-3-yl)((1S,4S,6R)-6-((5-(trifluoromethyl)pyridin-2-yl)amino)-2-azabicyclo[2.2.1]heptan-2-yl)methanone] | 7300 nM | 24 nM | 34 nM |
| O=C(c1cccc(F)c1-n1nccn1)N1C[C@H]2C[C@@H](Nc3ccc(C(F)(F)F)cn3)[C@@H]1C2 [Example 144, (3-fluoro-2-(2H-1,2,3-triazol-2-yl)phenyl)((1S,4S,6R)-6-((5-(trifluoromethyl)pyridin-2-yl)amino)-2-azabicyclo[2.2.1]heptan-2-yl)methanone] | 133 nM | 3 nM | 3 nM |
| O=C(c1ccc(F)cc1-n1nccn1)N1C[C@H]2C[C@@H](Nc3ccc(C(F)(F)F)cn3)[C@@H]1C2 [Example 145, (4-fluoro-2-(2H-1,2,3-triazol-2-yl)phenyl)((1S,4S,6R)-6-((5-(trifluoromethyl)pyridin-2-yl)amino)-2-azabicyclo[2.2.1]heptan-2-yl)methanone] | 934 nM | 17 nM | 7 nM |
| O=C(c1c(F)cccc1-n1nccn1)N1CC2CC(Nc3ccc(C(F)(F)F)cn3)C1C2 [Example 146, (2-fluoro-6-(2H-1,2,3-triazol-2-yl)phenyl)((1S,4S,6R)-6-((5-(trifluoromethyl)pyridin-2-yl)amino)-2-azabicyclo[2.2.1]heptan-2-yl)methanone] | 150 nM | 6 nM | 3 nM |
| O=C(c1c(F)cccc1-c1ncccn1)N1C[C@H]2C[C@@H](Nc3ccc(C(F)(F)F)cn3)[C@@H]1C2 [Example 147, (2-fluoro-6-(pyrimidin-2-yl)phenyl)((1S,4S,6R)-6-((5-(trifluoromethyl)pyridin-2-yl)amino)-2-azabicyclo[2.2.1]heptan-2-yl)methanone] | 190 nM | 5 nM | 6 nM |
| O=C(c1ccccc1-c1ncccn1)N1C[C@H]2C[C@@H](Nc3ccc(C(F)(F)F)cn3)[C@@H]1C2 [Example 148, (2-(pyrimidin-2-yl)phenyl)((1S,4S,6R)-6-((5-(trifluoromethyl)pyridin-2-yl)amino)-2-azabicyclo[2.2.1]heptan-2-yl)methanone] | 189 nM | 3 nM | 5 nM |
| Cc1cnc(C(=O)N2C[C@H]3C[C@@H](Nc4ccc(C(F)(F)F)cn4)[C@@H]2C3)c(-c2ncccn2)c1 [Example 149, (5-methyl-3-(pyrimidin-2-yl)pyridin-2-yl)((1S,4S,6R)-6-((5-(trifluoromethyl)pyridin-2-yl)amino)-2-azabicyclo[2.2.1]heptan-2-yl)methanone] | 4600 nM | 14 nM | 7 nM |
| Cc1ccc(-c2ncccn2)c(C(=O)N2C[C@H]3C[C@@H](Nc4ccc(C(F)(F)F)cn4)[C@@H]2C3)n1 [Example 150, (6-methyl-3-(pyrimidin-2-yl)pyridin-2-yl)((1S,4S,6R)-6-((5-(trifluoromethyl)pyridin-2-yl)amino)-2-azabicyclo[2.2.1]heptan-2-yl)methanone] | 88 nM | 13 nM | 9 nM |
| Cc1cnc(-c2ncccn2)c(C(=O)N2C[C@H]3C[C@@H](Nc4ccc(C(F)(F)F)cn4)[C@@H]2C3)c1 [Example 151, (5-methyl-2-(pyrimidin-2-yl)pyridin-3-yl)((1S,4S,6R)-6-((5-(trifluoromethyl)pyridin-2-yl)amino)-2-azabicyclo[2.2.1]heptan-2-yl)methanone] | 5100 nM | 21 nM | 47 nM |
| Cc1noc(-c2cc(F)ccc2C(=O)N2C[C@H]3C[C@@H](Nc4ccc(C(F)(F)F)cn4)[C@@H]2C3)n1 [Example 152, (4-fluoro-2-(3-methyl-1,2,4-oxadiazol-5-yl)phenyl)((1S,4S,6R)-6-((5-(trifluoromethyl)pyridin-2-yl)amino)-2-azabicyclo[2.2.1]heptan-2-yl)methanone] | 1600 nM | 30 nM | 16 nM |
| CN(c1ccc(C(F)(F)F)cn1)[C@@H]1C[C@H]2C[C@@H]1N(C(=O)c1ccccc1-n1nccn1)C2 [Example 153, (2-(2H-1,2,3-triazol-2-yl)phenyl)((1S,4S,6R)-6-(methyl(5-(trifluoromethyl)pyridin-2-yl)amino)-2-azabicyclo[2.2.1]heptan-2-yl)methanone] | 342 nM | 3 nM | 3 nM |
| CN(c1ccc(C(F)(F)F)cn1)[C@@H]1C[C@H]2C[C@@H]1N(C(=O)c1cccc(F)c1-n1nccn1)C2 [Example 154, (3-fluoro-2-(2H-1,2,3-triazol-2-yl)phenyl)((1S,4S,6R)-6-(methyl(5-(trifluoromethyl)pyridin-2-yl)amino)-2-azabicyclo[2.2.1]heptan-2-yl)methanone] | 329 nM | 4 nM | 6 nM |
| CN(c1ccc(C(F)(F)F)cn1)[C@@H]1C[C@H]2C[C@@H]1N(C(=O)c1cc(F)ccc1-n1nccn1)C2 [Example 155, (5-fluoro-2-(2H-1,2,3-triazol-2-yl)phenyl)((1S,4S,6R)-6-(methyl(5-(trifluoromethyl)pyridin-2-yl)amino)-2-azabicyclo[2.2.1]heptan-2-yl)methanone] | 303 nM | 5 nM | 3 nM |
| Cc1ccc(-n2nccn2)c(C(=O)N2C[C@H]3C[C@@H](N(C)c4ccc(C(F)(F)F)cn4)[C@@H]2C3)n1 [Example 156, ((1S,4S,6R)-6-(methyl(5-(trifluoromethyl)pyridin-2-yl)amino)-2-azabicyclo[2.2.1]heptan-2-yl)(6-methyl-3-(2H-1,2,3-triazol-2-yl)pyridin-2-yl)methanone] | 274 nM | 7 nM | 5 nM |
| CN(c1ccc(C(F)(F)F)cn1)[C@@H]1C[C@H]2C[C@@H]1N(C(=O)c1cc(F)ccc1-c1ncccn1)C2 [Example 158, (5-fluoro-2-(pyrimidin-2-yl)phenyl)((1S,4S,6R)-6-(methyl(5-(trifluoromethyl)pyridin-2-yl)amino)-2-azabicyclo[2.2.1]heptan-2-yl)methanone] | 340 nM | 5 nM | 2 nM |
| CN(c1ccc(C(F)(F)F)cn1)[C@@H]1C[C@H]2C[C@@H]1N(C(=O)c1c(F)cccc1-c1ncccn1)C2 [Example 159, (2-fluoro-6-(pyrimidin-2-yl)phenyl)((1S,4S,6R)-6-(methyl(5-(trifluoromethyl)pyridin-2-yl)amino)-2-azabicyclo[2.2.1]heptan-2-yl)methanone] | 209 nM | 6 nM | 4 nM |
| CCN(c1ccc(C(F)(F)F)cn1)C1CC2CC1N(C(=O)c1cccc(F)c1-c1ncccn1)C2 (stereo not drawn) [Example 160] | 208 nM | 9 nM | 6 nM |
| O=C(c1cccc(F)c1-c1ncccn1)N1C[C@H]2C[C@@H](N(CC3CC3)c3ccc(C(F)(F)F)cn3)[C@@H]1C2 [Example 161, ((1S,4S,6R)-6-((cyclopropylmethyl)(5-(trifluoromethyl)pyridin-2-yl)amino)-2-azabicyclo[2.2.1]heptan-2-yl)(3-fluoro-2-(pyrimidin-2-yl)phenyl)methanone] | 384 nM | 14 nM | 5 nM |
| COCCN(c1ccc(C(F)(F)F)cn1)[C@@H]1C[C@H]2C[C@@H]1N(C(=O)c1cccc(F)c1-c1ncccn1)C2 [Example 163, (3-fluoro-2-(pyrimidin-2-yl)phenyl)((1S,4S,6R)-6-((2-methoxyethyl)(5-(trifluoromethyl)pyridin-2-yl)amino)-2-azabicyclo[2.2.1]heptan-2-yl)methanone] | 962 nM | 19 nM | 12 nM |
| O=C(c1ccccc1-n1nccn1)N1C[C@H]2C[C@@H](Nc3ccc(Br)cn3)[C@@H]1C2 [Example 166, (2-(2H-1,2,3-triazol-2-yl)phenyl)((1S,4S,6R)-6-((5-bromopyridin-2-yl)amino)-2-azabicyclo[2.2.1]heptan-2-yl)methanone] | 236 nM | 2 nM | 4 nM |
| O=C(c1cccc(F)c1-c1ncccn1)N1C[C@H]2C[C@@H](Nc3ccc(Br)cn3)[C@@H]1C2 [Example 167, ((1S,4S,6R)-6-((5-bromopyridin-2-yl)amino)-2-azabicyclo[2.2.1]heptan-2-yl)(3-fluoro-2-(pyrimidin-2-yl)phenyl)methanone] | 239 nM | 2 nM | 6 nM |
| O=C(c1c(F)cccc1-c1ncccn1)N1C[C@H]2C[C@@H](Nc3ccc(Br)cn3)[C@@H]1C2 [Example 168, ((1S,4S,6R)-6-((5-bromopyridin-2-yl)amino)-2-azabicyclo[2.2.1]heptan-2-yl)(2-fluoro-6-(pyrimidin-2-yl)phenyl)methanone] | 351 nM | 2 nM | 4 nM |
| O=C(c1ccccc1-n1nccn1)N1C[C@H]2C[C@@H](Nc3ccc(Cl)cn3)[C@@H]1C2 [Example 169, (2-(2H-1,2,3-triazol-2-yl)phenyl)((1S,4S,6R)-6-((5-chloropyridin-2-yl)amino)-2-azabicyclo[2.2.1]heptan-2-yl)methanone] | 285 nM | 3 nM | 4 nM |
| O=C(c1cccc(F)c1-c1ncccn1)N1C[C@H]2C[C@@H](Nc3ccc(Cl)cn3)[C@@H]1C2 [Example 170, ((1S,4S,6R)-6-((5-chloropyridin-2-yl)amino)-2-azabicyclo[2.2.1]heptan-2-yl)(3-fluoro-2-(pyrimidin-2-yl)phenyl)methanone] | 321 nM | 4 nM | 12 nM |
